The values below come from PubChem BioAssay (NCI).

SMILES strings stand for the structures.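 These data come from cells grown in 96-well plates and exposed to compound for 48 hours at five concentrations. Here, GI50 denotes the concentration required for 50% inhibition of growth. TGI marks complete inhibition of growth.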 Where only a bound is given, the exact number is not on record here.

Test systems include A549 NSCLC; CAKI-1 renal; HCT-15 colon; M14 melanoma; MDA-MB-435; RPMI-8226 leukemia; SF-295 CNS; SN12C renal; SNB-19 CNS; UO-31 renal.
Assay in all cases: NCI anticancer screen, dose series, 48 h

In the case of `CNC(=O)N(C)N=NCCCl`, the TGI in the test with A549 NSCLC, with CAKI-1 renal, in the test on HCT-15 colon, in the test on M14 melanoma, with MDA-MB-435 and with RPMI-8226 leukemia was greater than 100 µM in each case. In addition, the TGI in the test on SF-295 CNS, in the test on SN12C renal, in the test on SNB-19 CNS and in the test on UO-31 renal was greater than 100 µM each time.

`O=C(O)C1C2C=CC(O2)C1C(=O)NCc1ccccn1` (centres undefined): the TGI in the test on A549 NSCLC, in the test on CAKI-1 renal, in the test with HCT-15 colon, in the test on M14 melanoma, in the test on MDA-MB-435 and with RPMI-8226 leukemia was greater than 100 µM each time. For the same compound, the TGI in the test on SF-295 CNS, with SN12C renal, in the test with SNB-19 CNS and in the test with UO-31 renal was greater than 100 µM throughout.

As to `C=C(c1nc2ccc(Cl)cc2[nH]c1=O)C(O)c1ccc(C(O)C(=O)c2nc3ccc(Cl)cc3[nH]c2=O)cc1` (centres undefined), the TGI in the test with A549 NSCLC, in the test on CAKI-1 renal, with HCT-15 colon, with M14 melanoma, in the test with MDA-MB-435 and in the test on RPMI-8226 leukemia was greater than 100 µM throughout. The TGI in the test with SF-295 CNS, with SN12C renal, in the test with SNB-19 CNS and in the test on UO-31 renal was greater than 100 µM throughout.

Take `N#Cc1c(NN)n(C2OC(CO)C(O)C2O)c2ncnc(N)c12` (centres undefined): the GI50 was 0.0353 µM in the test with A549 NSCLC; 0.0619 µM in the test with CAKI-1 renal; 0.0198 µM with HCT-15 colon; 0.0532 µM with M14 melanoma; 0.104 µM in the test with MDA-MB-435; 0.105 µM with RPMI-8226 leukemia. Further, the GI50 with SF-295 CNS is 0.344 µM; in the test with SN12C renal it was 0.151 µM; with SNB-19 CNS, 0.395 µM; with UO-31 renal it was 0.0417 µM. The TGI is greater than 100 µM in the test on A549 NSCLC; 0.639 µM in the test with CAKI-1 renal; 0.303 µM in the test with M14 melanoma; 0.916 µM in the test with MDA-MB-435; 0.614 µM in the test with RPMI-8226 leukemia; 47.8 µM in the test on SF-295 CNS. The TGI with SN12C renal was greater than 47.5 µM; in the test on SNB-19 CNS, greater than 29.5 µM; in the test on UO-31 renal, 0.774 µM.

Regarding `Clc1nc2ccccc2nc1CI`, the GI50 in the test with A549 NSCLC was 19.2 µM; in the test on CAKI-1 renal it was 5.65 µM; in the test with HCT-15 colon, 2.41 µM; in the test with M14 melanoma it was 3.32 µM; in the test on MDA-MB-435 it was 2.35 µM; in the test with RPMI-8226 leukemia it was 4.33 µM. Also, the GI50 in the test on SF-295 CNS was 18.9 µM; in the test on SN12C renal, 4.15 µM; with SNB-19 CNS, 16.2 µM; in the test with UO-31 renal, 2.05 µM. Also, the TGI with A549 NSCLC was found to be 38.6 µM; in the test with CAKI-1 renal, 13.2 µM; in the test on HCT-15 colon, 6.46 µM; in the test on M14 melanoma, 12.6 µM; in the test with MDA-MB-435, 6.61 µM; in the test with RPMI-8226 leukemia, 21.9 µM. Besides, the TGI in the test with SF-295 CNS turned out to be 44.9 µM; in the test with SN12C renal, 15.6 µM; in the test with SNB-19 CNS, 37.4 µM; in the test with UO-31 renal, 5.17 µM.

Consider `CN(C)N=Nc1ccc(NC=O)cc1`, for which the TGI in the test on A549 NSCLC, in the test on CAKI-1 renal, with HCT-15 colon, with M14 melanoma, with MDA-MB-435 and with RPMI-8226 leukemia was greater than 100 µM throughout. In addition, the TGI in the test on SF-295 CNS, in the test with SN12C renal, with SNB-19 CNS and in the test with UO-31 renal was greater than 100 µM in each case.

As for `N#CC(=C1C=CC(=NO)C=C1)c1ccccc1`, the GI50 is 4.58 µM in the test on A549 NSCLC; 1.23 µM in the test on CAKI-1 renal; 2.22 µM in the test on HCT-15 colon; 1.74 µM with M14 melanoma; 0.331 µM with MDA-MB-435; 0.348 µM in the test on RPMI-8226 leukemia. The GI50 with SF-295 CNS was 2.91 µM; with SN12C renal, 2.39 µM; in the test with SNB-19 CNS it was 3.73 µM; in the test with UO-31 renal, 3.45 µM. The TGI is greater than 37.2 µM in the test on A549 NSCLC; 11.5 µM with CAKI-1 renal; 12.3 µM with HCT-15 colon; 4.36 µM with M14 melanoma; 1.65 µM in the test on MDA-MB-435; 1.83 µM with RPMI-8226 leukemia. Moreover, the TGI in the test on SF-295 CNS came to 8.16 µM; in the test with SN12C renal, 8.41 µM; in the test with SNB-19 CNS it was 9.35 µM; in the test on UO-31 renal it was 19 µM.

Consider `NC(=Nc1c([N+](=O)[O-])cnc2ccccc12)N1CCOCC1`, for which the TGI with A549 NSCLC, in the test on CAKI-1 renal, in the test on HCT-15 colon, in the test on M14 melanoma, with MDA-MB-435 and in the test on RPMI-8226 leukemia was greater than 100 µM each time. Also, the TGI with SF-295 CNS, in the test on SN12C renal, in the test with SNB-19 CNS and in the test with UO-31 renal was greater than 100 µM in each case.

Take `COc1ccc(CN2C(=O)/C(=C\C(=O)c3ccc(OCCN4CCCCC4)cc3)c3ccccc32)cc1`: the GI50 with A549 NSCLC was 15.9 µM; in the test on CAKI-1 renal, 5.09 µM; in the test on HCT-15 colon, 1.67 µM; in the test on M14 melanoma, 1.83 µM; with MDA-MB-435, 3.12 µM; in the test on RPMI-8226 leukemia, 2.31 µM. Further, the GI50 is 13.8 µM with SF-295 CNS, 1.74 µM in the test on SN12C renal, 4.63 µM in the test with SNB-19 CNS and 1.57 µM in the test on UO-31 renal. For the same compound, the TGI was 31.2 µM with A549 NSCLC; 18.1 µM in the test on CAKI-1 renal; 3.37 µM in the test on HCT-15 colon; 3.85 µM in the test with M14 melanoma; 12.3 µM in the test on MDA-MB-435; 5.62 µM with RPMI-8226 leukemia. Besides, the TGI in the test on SF-295 CNS came out at 31.8 µM; with SN12C renal, 3.5 µM; in the test with SNB-19 CNS, 17.1 µM; in the test with UO-31 renal it was 2.92 µM.

Turning to `C=C1CC[C@@H]2[C@](C)(COC(C)=O)[C@H](OC(C)=O)CC[C@@]2(C)[C@@H]1CC(Sc1ccccc1)C1=CCOC1=O` (some centres undefined), the GI50 was 2.73 µM with A549 NSCLC; 2.77 µM with CAKI-1 renal; 0.877 µM in the test on HCT-15 colon; 1.47 µM in the test with M14 melanoma; 1.41 µM with MDA-MB-435; 0.343 µM in the test on RPMI-8226 leukemia. Also, the GI50 with SF-295 CNS was 4.12 µM; in the test on SN12C renal, 2.1 µM; in the test on SNB-19 CNS, 1.78 µM; in the test on UO-31 renal, 1.2 µM. The TGI in the test on A549 NSCLC stood at 7.77 µM; in the test on CAKI-1 renal, 11.5 µM; in the test with HCT-15 colon, 2.59 µM; with M14 melanoma, 3.69 µM; with MDA-MB-435 it was 3.58 µM; with RPMI-8226 leukemia, 2.73 µM. Also, the TGI stood at 27.3 µM in the test on SF-295 CNS, 7.07 µM in the test on SN12C renal, 3.77 µM in the test with SNB-19 CNS and 2.53 µM with UO-31 renal.
